Measured values reported in US10501479B2, “Benzenesulfonyl-asymmetric ureas and medical uses thereof” (HELSINN HEALTHCARE SA, priority 2016, dated 2019).
pEC50, pIC50: −log10 of the molar value. Read-outs that look alike come from different tables or passages of the source.

Columns and labels:
[1] = target: T1, recombinant human ghrelin receptor (HEK293/GRLN) (Homo sapiens, UniProt Q92847); assay: Ghrelin inverse agonist potency (EC50) with IP-1 (IP-One HTRF) assay; assay type: cell-based; settings: IP-1 assay
T1 construct: expressed in transfected cells
T1 sequence (Q92847 whole entry): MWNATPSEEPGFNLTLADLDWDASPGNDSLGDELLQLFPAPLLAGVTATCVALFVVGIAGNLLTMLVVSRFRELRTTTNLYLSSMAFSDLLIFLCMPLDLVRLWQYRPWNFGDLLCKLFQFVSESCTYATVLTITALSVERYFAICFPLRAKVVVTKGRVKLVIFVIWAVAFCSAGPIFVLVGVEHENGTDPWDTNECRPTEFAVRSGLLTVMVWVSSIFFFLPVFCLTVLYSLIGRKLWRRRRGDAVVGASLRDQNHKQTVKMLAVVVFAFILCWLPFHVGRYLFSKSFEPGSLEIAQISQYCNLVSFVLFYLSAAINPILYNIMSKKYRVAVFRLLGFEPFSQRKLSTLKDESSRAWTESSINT
Outline: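 HEK293/GRLN cells were seeded 18-22 hours before the test, then exposed to compound in stimulation buffer for 1 hour at 37° C, 5% CO2. IP-1 was detected by IP-One HTRF (IP1-d2 plus Tb-cryptate, 1 hour RT), reading 620 and 665 nm; the inverse agonist EC50 was derived from this.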

[2] = target: T2, GHSR-1a (HEK293/GHSR1a cell line) (Homo sapiens, UniProt Q92847); assay: Ghrelin antagonist potency (IC50) with calcium FLIPR assay, ghrelin 10 nM; assay type: cell-based; settings: ghrelin antagonist potency
T2 construct: expressed in transfected cells; host or cells: HEK293/GHSR1a cell line
T2 sequence (Q92847 whole entry): as above
Outline: (§1)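 Dye preload 30-60 min, RT or 37° C; compound in DMSO. Agonist mode: compound at t=20 sec, Ca2+ read 2 min. Antagonist mode: compound + ghrelin 10 nM at t=20 sec, 2 min read. EC50/IC50 from dose-response curves.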

[3] = Animal PK study in mouse via i.v., p.o. and s.c. administration; assay type: in vivo; settings: for PK CLiv / PK Vdiv / PK t1/2iv: i.v.; for PK CLpo / PK Vdpo / PK t1/2po: p.o.
Experimental: All treated animals received a single dose of a test compound (either through i.v., p.o., or s.c. administration) according to the regimen shown in the following table:
For oral dose groups, appropriate amount of test compound was prepared in the following formulation carrier: 1% DMSO (increase to 5% maximum if necessary) and 0.5% Methycellulose. Each mouse or rat received by oral gavage 10 mL/kg of the formulation mixture.
For i.v. and s.c dose groups, appropriate amount of test compound was dissolved in 1% DMSO (increase to 5% maximum if necessary), 99% of 20% HP-β-Cyclodextron (w/v). The pH was adjusted accordingly. Each mouse or rat received 5 mL/kg of the formulation mixture. i.v. dose was administered by tail vein injection. Subcutaneous injection was administered over the shoulders, into the loose skin over the neck. At designated time points (e.g., i.v. and s.c.: 0.083, 0.25, 0.5, 1, 2, 4, 8 and 24 hrs; p.o.: 0.25, 0.5, 1, 2, 4, 8 and 24 hrs), systemic samples of blood (50 μL in mouse or 500 μL in rat) were collected by puncture (submandibular vein in mouse or jugular vein in rat) into vacutainers containing EDTA-K2 as anti-coagulant. The blood was centrifuged at 6000 rpm for 8 min at 4° C. to obtain plasma. All plasma samples were stored at −20° C. All plasma samples were added to acetonitrile for protein precipitation and quantitatively analyzed by LC-MS/MS.

[4] = target: T2, GHSR-1a (HEK293/GHSR1a cell line); assay: Ghrelin agonist potency (EC50) with calcium FLIPR assay; assay type: cell-based; settings: ghrelin agonist potency, read-out: Activity EC50/EMax
Outline: as §1

[5] = inverse agonist potency, read-out: EC50 (Activity)
[6] = ghrelin inverse agonist potency, read-out: Activity EC50

| SMILES | pEC50 [1, 6] | pEC50 [4] | pIC50 ([2]; read-out: Activity IC50) | further results |
| --- | --- | --- | --- | --- |
| C[C@H](NC(=O)Nc1ccc(S(=O)(=O)Nc2ccc3c(c2)CCNC3)cc1)c1cccc(Cl)c1Cl.Cl [H1004, (S)-4-(3-(1-(2,3-dichlorophenyl)ethyl)ureido)-N-(1,2,3,4-tetrahydroisoquinolin-6-yl)benzenesulfonamide] |  |  |  | pEC50 [1, 5]: 8.40; pIC50 ([2]; read-out: IC50 (Activity)): 8.43; PK F [3]: 13%; PK CLiv [3]: 592 mL/min/kg; PK Vdiv [3]: 37.7 L/kg; PK t1/2iv [3]: 0.74 h; PK CLpo [3]: 3732 mL/min/kg; PK Vdpo [3]: 479.2 L/kg; PK t1/2po [3]: 1.48 h |
| COc1ccc([C@H](C)NC(=O)Nc2ccc(S(=O)(=O)Nc3ccc4c(c3)CCNC4)cc2)c(Cl)c1Cl.Cl [H1005, (S)-4-(3-(1-(2,3-dichloro-4-methoxyphenyl)ethyl)ureido)-N-(1,2,3,4-tetrahydroisoquinolin-6-yl)benzenesulfonamide] |  |  |  | pEC50 [1, 5]: 8.05; pIC50 ([2]; read-out: IC50 (Activity)): 7.70; PK F [3]: 1.3%; PK CLiv [3]: 7.33 mL/min/kg; PK Vdiv [3]: 1.46 L/kg; PK t1/2iv [3]: 2.3 h; PK CLpo [3]: 555.5 mL/min/kg; PK Vdpo [3]: 112.3 L/kg; PK t1/2po [3]: 2.33 h |
| CCOC(=O)N1CCc2cc(NS(=O)(=O)c3ccc(NC(=O)N[C@@H](C)c4cccc(Cl)c4Cl)cc3)ccc2C1 [H1054, ethyl (S)-6-((4-(3-(1-(2,3-dichlorophenyl)ethyl)ureido)phenyl)sulfonamido)-3,4-dihydroisoquinoline-2(1H)-carboxylate] |  |  |  | pIC50 ([2]; read-out: IC50 (Activity)): 5.00; PK F [3]: 3.0%; PK CLiv [3]: 27 mL/min/kg; PK Vdiv [3]: 4.32 L/kg; PK t1/2iv [3]: 1.85 h; PK CLpo [3]: 898 mL/min/kg; PK Vdpo [3]: 96.2 L/kg; PK t1/2po [3]: 1.24 h |
| CC(NC(=O)Nc1ccc2c(c1)S(=O)(=O)C(c1ccc3c(c1)CNC3)C2=O)c1ccccc1 (centres unmarked) [H1522, 1-(2-(isoindolin-5-yl)-1,1-dioxido-3-oxo-2,3-dihydrobenzo[b]thiophen-6-yl)-3-(1-phenylethyl)urea] | 5.72 | < 4.52 | 5.41 |  |
| COc1cc(S(=O)(=O)Cc2ccc3c(c2)CC(C)NC3)ccc1NC(=O)N(O)C(C)c1ccccc1 (centres unmarked) [H1524, 1-hydroxy-3-(2-methoxy-4-(((3-methyl-1,2,3,4-tetrahydroisoquinolin-6-yl)methyl)sulfonyl)phenyl)-1-(1-phenylethyl)urea] | 7.90 | < 4.52 | 8.01 |  |
| COc1cc(S(=O)(=O)Cc2ccc3c(c2)CCN(C)C3)ccc1NC(=O)N(O)C(C)c1ccccc1 (centres unmarked) [H1525, 1-hydroxy-3-(2-methoxy-4-(((2-methyl-1,2,3,4-tetrahydroisoquinolin-6-yl)methyl)sulfonyl)phenyl)-1-(1-phenylethyl)urea] | 7.59 | < 4.52 | 7.43 |  |
| CC(NC(=O)Nc1ccc(S(=O)(=O)Cc2ccc3c(c2)CNC3)cc1-c1ccnn1C)c1ccccc1 (centres unmarked) [H1528, 1-(4-((isoindolin-5-ylmethyl)sulfonyl)-2-(1-methyl-1H-pyrazol-5-yl)phenyl)-3-(1-phenylethyl)urea] | 7.08 | < 4.52 | 6.24 |  |
| CNC(=O)c1cc(NC(=O)NC(C)c2ccccc2)ccc1S(=O)(=O)Cc1ccc2c(c1)CNC2 (centres unmarked) [H1529, 2-((isoindolin-5-ylmethyl)sulfonyl)-N-methyl-5-(3-(1-phenylethyl)ureido)benzamide] | 7.56 | < 4.52 | 7.32 |  |
| CC(NC(=O)Nc1ccc(S(=O)(=O)Cc2ccc3c(c2)CNC3)c(C(=O)O)c1)c1ccccc1 (centres unmarked) [H1530, 2-((isoindolin-5-ylmethyl)sulfonyl)-5-(3-(1-phenylethyl)ureido)benzoic acid] | 6.11 | < 4.52 | 6.21 |  |
| CC(NC(=O)Nc1ccc(S(=O)(=O)Cc2ccc3c(c2)CNC3)c(C(N)=O)c1)c1ccccc1 (centres unmarked) [H1531, 2-((isoindolin-5-ylmethyl)sulfonyl)-5-(3-(1-phenylethyl)ureido)benzamide] | 6.35 | < 4.52 | 6.38 |  |
| CC(NC(=O)Nc1ccc(S(=O)(=O)Cc2ccc3c(c2)CNC3)cc1-c1cn[nH]c1)c1ccccc1 (centres unmarked) [H1532, 1-(4-((isoindolin-5-ylmethyl)sulfonyl)-2-(1H-pyrazol-4-yl)phenyl)-3-(1-phenylethyl)urea] | 7.16 | < 4.52 | 5.78 |  |
| CC(NC(=O)Nc1ccc(S(=O)(=O)Cc2ccc3c(c2)CNC3)cc1-c1cccnc1)c1ccccc1 (centres unmarked) [H1533, 1-(4-((isoindolin-5-ylmethyl)sulfonyl)-2-(pyridin-3-yl)phenyl)-3-(1-phenylethyl)urea] | 7.12 | < 4.52 | 5.77 |  |
| CC(NC(=O)Nc1ccc(S(=O)(=O)Cc2ccc3c(c2)CNC3)cc1-c1ccncc1)c1ccccc1 (centres unmarked) [H1534, 1-(4-((isoindolin-5-ylmethyl)sulfonyl)-2-(pyridin-4-yl)phenyl)-3-(1-phenylethyl)urea] | 7.05 | < 4.52 | 5.78 |  |
| CC(NC(=O)Nc1ccc(S(=O)(=O)Cc2ccc3c(c2)CNC3)cc1-c1cnn(C)c1)c1ccccc1 (centres unmarked) [H1535, 1-(4-((isoindolin-5-ylmethyl)sulfonyl)-2-(1-methyl-1H-pyrazol-4-yl)phenyl)-3-(1-phenylethyl)urea] | 7.67 | < 4.52 | 6.31 |  |
| C[C@@H](NC(=O)Nc1ccc(S(=O)(=O)Cc2ccc3c(c2)C(F)CN(C)C3)cc1)c1ccccc1 (stereo partly drawn) [H1539, 1-(4-(((4-fluoro-2-methyl-1,2,3,4-tetrahydroisoquinolin-6-yl)methyl)sulfonyl)phenyl)-3-((R)-1-phenylethyl)urea] | 6.58 | < 4.52 | 5.09 |  |
| C[C@@H](NC(=O)Nc1ccc(S(=O)(=O)Cc2ccc3c(c2)C(F)CNC3)cc1)c1ccccc1 (stereo partly drawn) [H1540, 1-(4-(((4-fluoro-1,2,3,4-tetrahydroisoquinolin-6-yl)methyl)sulfonyl)phenyl)-3-((R)-1-phenylethyl)urea] | 6.69 | < 4.52 | 5.13 |  |
| CC(NC(=O)Nc1ccc(S(=O)(=O)Cc2ccc3c(c2)C(F)(F)CNC3)cc1)c1ccccc1 (centres unmarked) [H1545, 1-(4-(((4,4-difluoro-1,2,3,4-tetrahydroisoquinolin-6-yl)methyl)sulfonyl)phenyl)-3-(1-phenylethyl)urea] | 7.72 | < 4.52 | 5.76 |  |
| CC(NC(=O)Nc1ccc(S(=O)(=O)Cc2ccc3c(c2)C(F)(F)CN(C)C3)cc1)c1ccccc1 (centres unmarked) [H1546, 1-(4-(((4,4-difluoro-2-methyl-1,2,3,4-tetrahydroisoquinolin-6-yl)methyl)sulfonyl)phenyl)-3-(1-phenylethyl)urea] | 6.90 | < 4.52 | 5.97 |  |
| CC(NC(=O)Nc1ccc(S(=O)(=O)Cc2ccc3c(c2)C(F)(F)CNC3)cc1)c1cccc(Cl)c1Cl (centres unmarked) [H1547, 1-(1-(2,3-dichlorophenyl)ethyl)-3-(4-(((4,4-difluoro-1,2,3,4-tetrahydroisoquinolin-6-yl)methyl)sulfonyl)phenyl)urea] | 7.46 | < 4.52 | 6.34 |  |
| CC(NC(=O)Nc1ccc(S(=O)(=O)Cc2ccc3c(c2)C(F)(F)CN(C)C3)cc1)c1cccc(Cl)c1Cl (centres unmarked) [H1548, 1-(1-(2,3-dichlorophenyl)ethyl)-3-(4-(((4,4-difluoro-2-methyl-1,2,3,4-tetrahydroisoquinolin-6-yl)methyl)sulfonyl)phenyl)urea] | 6.88 | < 4.52 | 6.18 |  |
| CC(NC(=O)Nc1ccc(S(=O)(=O)Cc2ccc3c(c2)CNC3)cc1C(=O)O)c1cccc(Cl)c1Cl (centres unmarked) [H1549, 2-(3-(1-(2,3-dichlorophenyl)ethyl)ureido)-5-((isoindolin-5-ylmethyl)sulfonyl)benzoic acid] | 8.92 | < 4.52 | 8.77 |  |
